Data reported in patent publication EP2662079A1 (Ordway Research Institute, Inc., priority 2012, dated 2013).

Assays:
MDA-MB-231 cells = experiment: Cell proliferation in perfusion bellows cell culture system; assay type: cell-based; conditions: Homo sapiens, 10^-6 M (Tetrac equivalent), added at day 0, by day 9
Procedure: Tetrac and nanoparticulate Tetrac. Tetrac was custom-synthesized by Peptido GMBH (Bembach, Germany). The proprietary Tetrac nanoparticle was custom-synthesized by covalently-bonding of the outer ring hydroxyl of Tetrac to PLGA via an intervening linker. […] Cell culture for definition of effects of Tetrac formulations on tumor cell proliferation. MDA-MB-231 cells were purchased from ATCC (Manassas, VA). Cells were maintained until use in DMEM that contained 10% FBS. The incubator conditions were 5% CO2/95% 02 and 37° C. The action of unmodified Tetrac and nanoparticulate on MDA-MB-231 cells was determined in a perfusion bellows cell culture system we have recently described for quantitating pharmaceutical agent pharmacodynamics in vitro. (See Lin et al., J Steroid Biochem Mol Biol 113: 182-188 (2009)). In brief, the cell culture system is a disposable bioreactor capable of high density cell culture for studies of anti-cancer drugs. Bellows-induced alternate flow of culture medium and air through porous matrices where cells are grown provides a relatively low shear, high aeration, foam-free culture environment. Medium level is raised and lowered to submerge and expose matrices to create a dynamic interface between air and media on the cell surface. […] Flakes thereafter were sampled at regular intervals (Figure 44), subjected to trypsinization and the harvested cells counted. […]

h-MTC cells = experiment: RNA microarray of MTC cells; assay type: cell-based, human
Text: (§1) Treatment of animals with unmodified or nanoparticulate Tetrac. […] Estimation of tumor response to Tetrac or nanoparticulate Tetrac. […] Statistical analysis for CAM and xenograft studies. […] Statistical significance was defined as P <0.05. RNA microarray analysis.

[1] = test system: Human medullary carcinoma cells (TT); assay type: in vivo
Text: Cells and cell culture. […] Tetrac versus Tetrac NP distribution in h-MTC. […] Penicillin streptomycin (1%) was present in both culture media. […] Cell implantation in nude mice. […] Water and food were provided ad libitum.
as §1

GL261 cells = experiment: Sublethal damage repair (SLDR), split-dose x-rays; assay type: cell-based, murine
Procedure: SLDR was measured at 10% immediate survival level as determined from the acute single dose curve for both control and Tetrac-treated cells in both growth states (i.e. exponentially growing and plateau phase cells. Flasks were irradiated with one-half of the total dose and returned to the 37°C incubator. At increasing periods of time, flasks were removed, and given the second half of the immediate 10% survival dose. Survival was measured at 0, 0.5, 1.0, 1.5, 2.0, 3.0, 4.0, 6.0, 8.0, and 10.0 hours after the initial dose.
To investigate the effects of Tetrac on SLDR and PLDR, cells were chosen that had been given a one-hour treatment with Tetrac at two different times, i.e., at 70 and 270 hours post-seeding).

U87MG cells = experiment: Clonogenic survival after 250 kVp x-irradiation; assay type: cell-based, human
Procedure: To irradiate culture flasks, a Philips 250 kVp x-ray machine (Philips Corp., Fall River, MA) operated at 250 kVp and 15 mA with added filtration of a 0.4 mm Thoreaus filter was used. The target to source distance was 30 cm. Dose rates were measured using an R-meter (Victoreen Co., Cleveland, OH), and converted to absorbed (Gy) doses using appropriate temperature, pressure, and R to Gy conversion factors. The dose rate was approximately 1 Gy/min. Flasks were irradiated after being taken from a 37°C environment and moved to the x-ray source. Movement at ambient temperature took approximately 1-2 min. Cells were next placed on ice and allowed to cool for 5 min. Lastly, flasks were placed in the Philips irradiator on top of a 2 mm thickness of Lucite which was on top of a layer of crushed ice. […]
For SHMT analysis, data lying at or below a fractional survival (FxS) value of 0.368 were fit using a linear regression analysis of the log survival data versus linear dose. From this fit the extrapolation number (n), the quasi-threshold dose (Dq, Gy) and the inverse of the inactivation slope (Do, Gy) were derived.
For LQ analyses, survival data lying between the fractional survivals of 1.00 and 0.05 were used. The log survival data were transformed to a linear form using the relationship (- ln FxS/D) and plotted against D. A linear regression analysis was performed to yield the LQ equation along with the 95% confidence limits on the γ-intercept (alpha) and the slope (beta) using a t-table with the appropriate (N-1) degrees of freedom. (See Goldstein A. Biostatistics, Academic Press, 1995.)

O=C(O)Cc1cc(I)c(Oc2cc(I)c(O)c(I)c2)c(I)c1 [Tetrac, 3,3',5,5'-tetraiodothyroacetic acid]
inhibition at 1 µM (MDA-MB-231 cells): > 30% | expression of VEGFA (h-MTC cells): significantly decreased expression | expression of apoptosis-associated genes (CASP2, DFFA, FAF1, CASP8AP2) (h-MTC cells): caused expression | expression of thrombospondin (THBS1) (h-MTC cells): increase | reduction of tumor mass compared to controls ([1]; Tetrac 10 mg/kg i.p., nanoparticulate Tetrac 1 mg/kg i.p., end of study): 65-80% | decrease of tumor tissue hemoglobin content ([1]; Tetrac 10 mg/kg or Tetrac NP 1 mg/kg i.p. daily for 3 weeks): 66% | reduction in tumor-associated neovascularization (hemoglobin levels in tumor tissue) ([1]; Tetrac 10 mg/kg or Tetrac NP 1 mg/kg i.p. daily for 21 days): 70-80% | tumor size ([1]; Tetrac 10 mg/kg or Tetrac NP 1 mg/kg i.p. daily, over 21 days): < 100 mm^3 | time to detected reduction in tumor size ([1]; after initiation of treatment): ≤ 2 days | repair of x-ray damage (GL261 cells; Tetrac 2uM, 6 to 8 hours post-irradiation (Figure 58)): no repair of x-ray damage | recovery ratio (GL261 cells; exponential Tetrac treated cells, 2 hours after the first dose): 1.8 | factor by which Tetrac reduced SLDR (GL261 cells; exponential cells): 1.8 | survival relative to survival seen at 0 hours (GL261 cells; plateau phase cells with Tetrac, 3 hours after the initial dose): approximately 36% | decrease in cellular repair (factor) (GL261 cells; plateau phase cells, three hours post-irradiation): ~3 | increase of α (ratio of the alpha values) (U87MG cells): 3.6 fold | increase of β (U87MG cells): 4.8 fold | median sensitization factor (U87MG cells): 3.6 | ratio of relative survival values at 2 Gy (U87MG cells): 4.6 | reduction of the DQ value (U87MG cells): 100% | reduction of the Do value (U87MG cells): 31% | α (U87MG cells; LQ, Tetrac treated cells): 0.817 (± 0.091) | β (U87MG cells; LQ, Tetrac treated cells): 0.076 (± 0.006) | DQ (Gy) (U87MG cells; SHMT, Tetrac treated cells): 0.00 ± 0.22 Gy | Do (Gy) (U87MG cells; SHMT, Tetrac treated cells): 1.09 ± 0.36 Gy | relative survival at 2 Gy (U87MG cells; Tetrac treated cells (control 59.6)): 12.8 | isoeffect comparison ratio (U87MG cells; at 10% survival): 2.2 | average sensitization factor (U87MG cells; average of 3 comparisons, range of 2.2 to 4.6): 3.5
